From US10766865B2, “PKM2 modulators and methods for their use” (TOLERO PHARMACEUTICALS, INC., priority 2012, dated 2020)
Like-named read-outs stand apart in the source and are kept apart here.

Columns and labels:
[1] = system: A549 cells; assay: Cell Proliferation Assay, A549; type: cell-based; settings: Homo sapiens; A549, BME media lacking nonessential amino acids, 72 hours, ATPlite; read-out: Percent viability (EC50), Average
Method: (§1) Cells were seeded at 5000 cells per well (in 96-well plate) in BME media lacking nonessential amino acids+5% dialyzed serum. After 18 hours, DMSO or compound in 0.1% final concentration DMSO was added.
(§2) Percent viability (EC50) of A549 and PC3 cells was tested against certain exemplary compounds according to the above general procedures.

[2] = system: PC3 cells; assay: Cell Proliferation Assay, PC3; type: cell-based; settings: Homo sapiens, PC-3; PC3, BME media lacking nonessential amino acids, 72 hours, ATPlite; read-out: Percent viability (EC50), Average
Method: as §1, §2

[3] = molecular target: T1, PKM2 (Homo sapiens, UniProt P14618); assay: PKM2 Biochemical Assay; settings: for Max. Resp.: % maximum response in a biochemical assay as compared with Fructose 1,6-bisphosphate; for Emax: read-out: % FBP (extent of maximal activation, relative to FBP); for Maximal PKM2 activity: relative to activity in DMSO controls (normalized to 100%), FIG. 1B
Target sequence in this assay (P14618 whole entry): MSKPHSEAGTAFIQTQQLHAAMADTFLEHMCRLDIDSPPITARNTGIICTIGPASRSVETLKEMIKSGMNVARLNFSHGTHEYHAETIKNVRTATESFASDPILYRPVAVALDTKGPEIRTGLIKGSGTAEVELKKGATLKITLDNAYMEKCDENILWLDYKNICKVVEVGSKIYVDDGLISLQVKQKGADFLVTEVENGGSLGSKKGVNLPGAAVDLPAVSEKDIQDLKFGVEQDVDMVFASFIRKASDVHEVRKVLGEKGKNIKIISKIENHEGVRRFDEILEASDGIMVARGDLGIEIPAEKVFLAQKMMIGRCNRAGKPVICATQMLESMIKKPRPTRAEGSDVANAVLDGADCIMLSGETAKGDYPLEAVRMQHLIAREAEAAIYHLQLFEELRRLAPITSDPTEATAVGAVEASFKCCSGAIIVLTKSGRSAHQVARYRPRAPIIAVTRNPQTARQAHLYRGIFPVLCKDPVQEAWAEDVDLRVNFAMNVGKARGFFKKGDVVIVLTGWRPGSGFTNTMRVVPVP
Method: Full length, human PKM2 enzyme was obtained from Promab (Richmond, Calif.). All reagents, unless otherwise noted, were obtained from Sigma (St. Louis, Mo.).
Compounds were pre-incubated with 2 nM PKM2 in reaction buffer (50 mM Tris-HCl, pH 8.0, 200 mM KCl, 30 mM MgCl2, 2 mM DTT, 5% DMSO) for 30 min at ambient temperature. […] After 30 min, ATP formation was measured by Kinase Glo (Promega, Madison, Wis.), and AC50 values were determined using Prism (GraphPad Software, Inc., La Jolla, Calif.).

[4] = molecular target: T1, PKM2; assay: Cell-Based Pyruvate Kinase Activity Assay, A549; set-up: host or cells: A549 or NCI-H1299 lung cancer cells; settings: A549, 30 minutes with compound, n = 4; read-out: Cellular PKM2 activation EC50
Method: (§3) Cell-Based Pyruvate Kinase Activity Assay
(§4) A549 or NCI-H1299 lung cancer cells were plated at 20,000 cells per well (96-well plate) in MEM media plus 10% FBS, with no additional glutamine or pyruvate. Following overnight incubation, cells were washed with PBS followed by 4 hour incubation in MEM media. Compounds were added to the cells in 1% final concentration DMSO. After 30 minutes, cells were lysed, and pyruvate kinase activity in lysates was determined by Pyruvate Kinase Activity Assay (BioVision, Milpitas, Calif.). Maximum velocity values were calculated from the kinetic data, and AC50 values were determined using Prism GraphPad Software (La Jolla, Calif.). Compound washout experiments were as described above, except after a 30 minute incubation with Example 244 (469 nM), the cells were washed with PBS followed by the addition of MEM media for the indicated time period, lysed and pyruvate kinase activity determined. Results are tabulated in Table 3 and presented graphically in FIGS. 6A and 6B.
Target sequence in this assay (P14618 2-531 limits assumed): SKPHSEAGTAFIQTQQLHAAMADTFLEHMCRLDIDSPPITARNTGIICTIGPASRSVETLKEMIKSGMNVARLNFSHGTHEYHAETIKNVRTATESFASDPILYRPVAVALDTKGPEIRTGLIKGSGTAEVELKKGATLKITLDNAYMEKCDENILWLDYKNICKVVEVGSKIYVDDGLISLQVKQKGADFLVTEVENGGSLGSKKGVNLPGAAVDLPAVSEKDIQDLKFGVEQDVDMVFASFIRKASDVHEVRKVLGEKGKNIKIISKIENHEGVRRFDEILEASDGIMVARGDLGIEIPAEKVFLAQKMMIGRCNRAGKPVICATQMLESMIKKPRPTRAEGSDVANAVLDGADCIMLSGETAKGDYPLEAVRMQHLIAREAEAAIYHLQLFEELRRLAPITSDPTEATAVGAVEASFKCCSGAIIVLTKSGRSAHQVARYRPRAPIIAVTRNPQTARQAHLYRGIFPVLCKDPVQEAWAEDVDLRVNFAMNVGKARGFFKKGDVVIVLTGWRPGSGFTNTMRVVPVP

[5] = molecular target: T1, PKM2; assay: Cell-Based Pyruvate Kinase Activity Assay, NCI-H1299; set-up: host or cells: A549 or NCI-H1299 lung cancer cells; settings: NCI-H1299, 30 minutes with compound, n = 4; read-out: Cellular PKM2 activation EC50
Method: as §3, §4
Target sequence in this assay (P14618 2-531 limits assumed): as above

[6] = read-out: AC50 (concentration of half-maximal PKM2 activation), Table 2, n = 6 to 10

Row | Compound | EC50 [1] | EC50 [2] | Max. Resp. [3] | also measured
1 | CO[C@H]1CC[C@H](N(Cc2ccccc2F)C(=O)c2cc(C(F)(F)F)n[nH]2)CC1 [Example 47, N-(2-FLUOROBENZYL)-N-(TRANS-4-METHOXYCYCLOHEXYL)-3-(TRIFLUOROMETHYL)-1H-PYRAZOLE-5-CARBOXAMIDE] | 188 nM | 383 nM | 89% | –
2 | CO[C@H]1CC[C@H](N(Cc2cccc(N)c2)C(=O)c2cc(C(F)(F)F)n[nH]2)CC1 [Example 54] | 102 nM | 193 nM | 93% | –
3 | O=C(c1cc(C(F)(F)F)n[nH]1)N(CCC1CCS(=O)(=O)C1)Cc1ccccc1Cl (stereo not shown) [Example 62, N-(2-chlorobenzyl)-N-(2-(1,1-dioxidotetrahydrothiophen-3-yl)ethyl)-3-(trifluoromethyl)-1H-pyrazole-5-carboxamide] | 108 nM | 166 nM | 105% | –
4 | O=C(c1cc(C(F)(F)F)n[nH]1)N(CCC1CCS(=O)(=O)CC1)Cc1ccccc1Cl [Example 75, N-(2-chlorobenzyl)-N-(2-(1,1-dioxidotetrahydro-2H-thiopyran-4-yl)ethyl)-3-(trifluoromethyl)-1H-pyrazole-5-carboxamide] | 148 nM | 223 nM | 102% | –
5 | Nc1cccc(F)c1CN(CCC1CCS(=O)(=O)CC1)C(=O)c1cc(C(F)(F)F)n[nH]1 [Example 91, N-(2-amino-6-fluorobenzyl)-N-(2-(1,1-dioxidotetrahydro-2H-thiopyran-4-yl)ethyl)-3-(trifluoromethyl)-1H-pyrazole-5-carboxamide] | 20.3 nM | 47.3 nM | – | –
6 | CCCN(CC)CCN(Cc1c(N)cccc1Cl)C(=O)c1cc(C(F)(F)F)n[nH]1 [Example 223, N-(2-chloro-6-aminobenzyl)-N-(2-(ethyl-propylamino)ethyl)-3-(trifluoromethyl)-1H-pyrazole-5-carboxamide] | 33.5 nM | 54 nM | 100% | –
7 | O=C(c1cc(C(F)(F)F)n[nH]1)N(Cc1ccccc1Cl)CC1CCN1 (stereo not shown) [Example 227, N-(2-chlorobenzyl)-N-((azetidin-2-yl)methyl)-3-(trifluoromethyl)-1H-pyrazole-5-carboxamide] | 928 nM | 1310 nM | 100% | –
8 | Nc1cccc(Cl)c1CN(CCN1CCCOCC1)C(=O)c1cc(C(F)(F)F)n[nH]1 [Example 239, N-(2-(1,4-oxazepan-4-yl)ethyl)-N-(2-amino-6-chlorobenzyl)-3-(trifluoromethyl)-1H-pyrazole-5-carboxamide] | 73.1 nM | 129 nM | 100% | –
9 | CCCN(CC)CCN(Cc1c(N)cccc1F)C(=O)c1cc(C(F)(F)F)n[nH]1 [Example 240, N-(2-fluoro-6-aminobenzyl)-N-(2-(ethyl-propylamino)ethyl)-3-(trifluoromethyl)-1H-pyrazole-5-carboxamide] | – | – | 100% | –
10 | O=C(c1cc(Cl)n[nH]1)N(Cc1ccc(O)cc1F)CC1CCC1 [Example 244, N-(2-fluoro-4-hydroxybenzyl)-3-chloro-N-(cyclobutylmethyl)-1H-pyrazole-5-carboxamide] | – | – | – | Emax [3]: 107 ± 10%; AC50 [3, 6]: 62 ± 23 nM; Maximal PKM2 activity [3]: approximately 600%; EC50 [4]: 450 ± 180 nM; EC50 [5]: 300 ± 70 nM
11 | O=C(c1cc(Br)n[nH]1)N(Cc1ccc(O)cc1F)CC1CCC1 [Example 245] | – | – | 100% | –
12 | O=C(c1cc(C2CC2)n[nH]1)N(Cc1ccc(O)cc1F)CC1CCC1 [Example 246] | – | – | 85% | AC50 ([3]; read-out: PKM2 AC50, 2 nM PKM2, 75 μM ADP, 15 μM PEP, Kinase Glo): 92 nM
13 | O=C(COP(=O)(O)O)[C@@H](O)[C@H](O)[C@H](O)COP(=O)(O)O [FBP, fructose-1,6-bisphosphate, reference compound] | – | – | – | Emax [3]: 100%; AC50 [3, 6]: 23 ± 8 nM; Maximal PKM2 activity [3]: approximately 600%

Continued, in another order:

Row | EC50 [1] | EC50 [2] | Max. Resp. [3] | Compound | also measured
14 | 45.8 nM | 92.4 nM | 100% | Nc1cccc(Cl)c1CN(CCN1CCC(O)C1)C(=O)c1cc(C(F)(F)F)n[nH]1 (stereo not shown) [Example 234, N-(2-amino-6-chlorobenzyl)-3-(trifluoromethyl)-N-(2-(3-hydroxypyrrolidin-1-yl)ethyl)-1H-pyrazole-5-carboxamide] | –
15 | – | – | 100% | COC1CCN(CCN(Cc2c(N)cccc2Cl)C(=O)c2cc(C(F)(F)F)n[nH]2)C1 (stereo not shown) [Example 235, N-(2-amino-6-chlorobenzyl)-3-(trifluoromethyl)-N-(2-(3-methoxypyrrolidin-1-yl)ethyl)-1H-pyrazole-5-carboxamide] | –
16 | 8.1 nM | 33 nM | 73% | Nc1cccc(Cl)c1CN(CCN1CCCC(F)C1)C(=O)c1cc(C(F)(F)F)n[nH]1 (stereo not shown) [Example 236, N-(2-amino-6-chlorobenzyl)-3-(trifluoromethyl)-N-(2-(3-fluoropiperidin-1-yl)ethyl)-1H-pyrazole-5-carboxamide] | –
17 | – | – | 100% | COC1CCCN(CCN(Cc2c(N)cccc2Cl)C(=O)c2cc(C(F)(F)F)n[nH]2)C1 (stereo not shown) [Example 237, N-(2-amino-6-chlorobenzyl)-3-(trifluoromethyl)-N-(2-(3-methoxypiperidin-1-yl)ethyl)-1H-pyrazole-5-carboxamide] | –
18 | – | – | 100% | Nc1cccc(Cl)c1CN(CCN1CC[C@H](F)C1)C(=O)c1cc(C(F)(F)F)n[nH]1 [Example 241, N-(2-amino-6-chlorobenzyl)-3-(trifluoromethyl)-N-(2-((S)-3-fluoropyrrolidin-1-yl)ethyl)-1H-pyrazole-5-carboxamide] | –
19 | – | – | 100% | Nc1cccc(Cl)c1CN(CCN1CC[C@@H](F)C1)C(=O)c1cc(C(F)(F)F)n[nH]1 [Example 242, N-(2-amino-6-chlorobenzyl)-3-(trifluoromethyl)-N-(2-((R)-3-fluoropyrrolidin-1-yl)ethyl)-1H-pyrazole-5-carboxamide] | –
20 | – | – | 100% | Nc1cccc(Cl)c1CN(CCN1CCCC(F)CC1)C(=O)c1cc(C(F)(F)F)n[nH]1 (stereo not shown) [Example 243, N-(2-amino-6-chlorobenzyl)-N-(2-(4-fluoroazepan-1-yl)ethyl)-3-(trifluoromethyl)-1H-pyrazole-5-carboxamide] | –
